Source: US20260048138A1, “NOVEL PI3K AND/OR PIKK INHIBITORS, ANTIBODY-DRUG CONJUGATES COMPRISING THE SAME AND USES THEREOF” (HUTCHMED LIMITED, priority 2024, published 2026)
Where two headings read alike, the source gives them in different places.

Key:
MDA-MB-468 = assay: Inhibition of cell proliferation by payloads in vitro (CCK-8); type: cell-based; settings: Homo sapiens, MDA-MB-468, 144 h, read-out: IC50, nM MDA-MB-468
Experimental: (§1) The cells were added to a 96-well plate at 1.0×10^3 cells/well and 100 μL/well and incubated in a cell culture incubator at 37° C. and 5% CO2. The test compounds were diluted with a DMEM medium containing 2% DMSO (Sigma-Aldrich, Cat. No. 34869) in a 4-fold gradient to the corresponding concentrations. […] The final concentration of DMSO was 0.2%. The cells were incubated in a cell culture incubator at 37° C. and 5% CO2 for 6 days.
(§2) After 6 days of culture, 10 μL/well of Cell Counting Kit-8 reagent (CCK-8, Dojindo, Cat. No. CK04) was added to the wells and mixed well with shaking. The cells were incubated in a cell culture incubator at 37° C. and 5% CO2 for 0.50-4.0 hours.
(§3) The OD450 optical density value was read on an EnVision™ multi-function microplate reader (PerkinElmer), and the inhibition rates (%) of the compounds were calculated. Then, the half-maximal inhibitory concentration (IC50) values were obtained using the XLfit5 software (ID Business Solutions Limited). All samples were tested in duplicate wells.
(§4) [formula] • wherein • OD450test compound represents the optical density value in the wells of the compounds to be tested; • OD450cell represents the optical density value in the wells of cell controls; • OD450background represents the optical density value in the wells of cell-free controls.

MDA-MB-453 = assay: as above; type: cell-based; settings: Homo sapiens, MDA-MB-453, 144 h, read-out: IC50, nM MDA-MB-453
Experimental: as §1, §2, §3, §4

ATR/ATRIP(h) = target: T1, ATR/ATRIP(h) (Homo sapiens, UniProt Q13535); assay: ATR/ATRIP(h) kinase activity, HTRF (Eurofins Cerep); type: biochemical; settings: read-out: ATR/ATRIP(h) (enzyme, IC50)
T1 construct: purchased Eurofins Cerep 14-953
Experimental: (§5) The […], ATM(h), ATR/ATRIP(h), and DNA-PK (h) were detected by HTRFR.
(§6) The calculation formula was as follows: […]
(§7) For IC50 determination, the data were analyzed using XLFit version 5.3 (ID Business Solutions).

[1] = target: T2, Human PIK3CA/PIK3R1 (p110α/p85α) recombinant protein (Homo sapiens, UniProt P42336); assay: PIK3CA/PIK3R1 (p110α/p85α) kinase activity, Transcreener ADP2 FP; type: biochemical; settings: 10 μM ATP, 30 μM PIP2:PS; read-out: PIK3CA/PIK3R1 (p110α/p85α) (Enzyme, IC50)
T2 construct: His tag; purchased Invitrogen PV4788
Experimental: The complex formed by the binding of the ADP Alexa633 Tracer to the ADP2 antibody therein could produce fluorescence polarization. […] Assay is carried out according to the instruction of the kit. […] After that, 10 μl PIK3CA/PIK3R1 (p110α/p85α) enzyme solution was added to each well; then, 10 μl of a mixed solution of ATP and PIP2:PS lipid kinase substrate was added to each well, and the mixture was centrifuged at 1000 rpm for 60 seconds; Then, the 96-well plate was placed in a constant temperature incubator protected from light and incubated at room temperature for 1 hour. […] After the enzymatic reaction was completed, 25 μl of ADP detection mixture was added to the positive control group, 25 μl of ADP detection mixture without ADP^2 antibody was added to the negative control group, and 25 μl of ADP detection mixture without tracer-label ADP and ADP^2 antibody was added to the blank control group. Then centrifugation was performed at 1000 rpm for 60 seconds. The 96-well plate was placed in a constant temperature incubator protected from light, and incubated at room temperature for 1.5 hours. […] [formula] The inhibition rate was calculated using the formula as below: [formula]

ATM(h) = ATM(h) (Homo sapiens, UniProt Q13315); assay: ATM(h) kinase activity, HTRF (Eurofins Cerep); type: biochemical; settings: read-out: ATM(h) (enzyme, IC50)
Experimental: as §5, §6, §7

DNA-PK(h) = target: T3, DNA-PK(h) (Homo sapiens, UniProt P78527); assay: DNA-PK(h) kinase activity, HTRF (Eurofins Cerep); type: biochemical; settings: read-out: DNA-PK(h) (enzyme, IC50)
T3 construct: purchased Eurofins Cerep 14-950
Experimental: as §5, §6, §7

[2] = target: T4, Human FRAP1 (mTOR) recombinant protein (Homo sapiens, UniProt P42345); assay: FRAP1 (mTOR) kinase activity, LanthaScreen TR-FRET; type: biochemical; settings: 10 μM ATP, 0.4 μM GFP-4EBP1; read-out: FRAP1 (mTOR) (Enzyme, IC50)
T4 construct: GST; purchased Invitrogen PV4753
Experimental: Determination of FRAP1 (mTOR) Kinase Activity • Human FRAP1 (mTOR) recombinant protein (GST tag): Invitrogen, Cat. No. PV4753; • GFP-4E-BP1: Thermo Scientific, Cat. No. PV4759; • LanthaScreenTM Tb-p4E-BP1 ([…]) antibody: Thermo Scientific, Cat. No. PV4755; • TR-FRET dilution buffer: Thermo Scientific, Cat. No. PV3574; • ATP solution (10 mM): Thermo Scientific, Cat. No. PV3227; • HEPES (1 M): Gibco, Cat. No. 15630-106; • EDTA (0.5 M), pH 8.0, RNase-free: Invitrogen, Cat. No. A[…]; • Manganese chloride solution: Sigma-Aldrich, Cat. No. M1787; • EGTA: Sigma-Aldrich, Cat. No. E4378; • TWEEN®20: Sigma-Aldrich, Cat. No. P2287; • DTT: Sigma-Aldrich, Cat. No. DTT-RO; • 384-well plate: Corning, Cat. No. 3676; • 384-well plate: Corning, Cat. No. 4514; • Envision multi-mode plate reader: PerkinElmer; 4EBP1 is the substrate of mTOR, and when mTOR is activated, it will phosphorylate […] of the 4EBP1 protein. LanthaScreenTM kinase assay is used to detect the amount of phosphorylated substrate GFP-4E-BP1 produced in kinase activity experiments, thereby judging the mTOR kinase activity, and through the strength of the kinase activity, distinguishing the inhibitory effects of different compounds on the activity of FRAP1 (mTOR) kinase. […] Then, the 384-well plate was placed in a constant temperature incubator protected from light and incubated at room temperature for 1 hour. […] The 384-well plate was taken out and the plate was read using an Envision multi-mode plate reader (the excitation light wavelength was 320 nm and the emission light wavelengths were 495 nm and 520 nm). The inhibition rate was calculated using the formula as below: [formula]

CD38 (Ramos cells) = target: T5, CD38 (Ramos cells) (Homo sapiens, UniProt P28907); assay: Binding of antibody or ADC to Ramos cells (CD38+) by flow cytometry; settings: cell binding, MFI by flow cytometry
T5 construct: Ramos cells (ATCC, Cat. No. CRL-1596); host or cells: Ramos

CEACAM5/6 [3] = assay: cell-based or functional assay
CEACAM5/6 [4] = assay: flow cytometry on H2122 cells (CEACAM5/6+)
CD20 [5] = target: T6, CD20 (UniProt P11836 1-297, limits assumed); assay: flow cytometry on Ramos cells (CD20+)
T6 construct: whole, on cells
T6 sequence (looked up): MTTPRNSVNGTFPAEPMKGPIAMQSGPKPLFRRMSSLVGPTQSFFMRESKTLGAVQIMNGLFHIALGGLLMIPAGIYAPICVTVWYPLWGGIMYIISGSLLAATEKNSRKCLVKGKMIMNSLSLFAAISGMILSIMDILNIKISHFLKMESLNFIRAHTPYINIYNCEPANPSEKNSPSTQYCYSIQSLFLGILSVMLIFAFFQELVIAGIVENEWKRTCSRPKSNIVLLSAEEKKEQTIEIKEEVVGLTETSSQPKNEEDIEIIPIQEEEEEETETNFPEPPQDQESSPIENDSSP

CD20 [6] = target: T6, CD20; assay: cell-based or functional assay
[7] = payloads, proliferation, 6 days, CCK-8

T4 sequence (P42345 1360-2549 limits assumed): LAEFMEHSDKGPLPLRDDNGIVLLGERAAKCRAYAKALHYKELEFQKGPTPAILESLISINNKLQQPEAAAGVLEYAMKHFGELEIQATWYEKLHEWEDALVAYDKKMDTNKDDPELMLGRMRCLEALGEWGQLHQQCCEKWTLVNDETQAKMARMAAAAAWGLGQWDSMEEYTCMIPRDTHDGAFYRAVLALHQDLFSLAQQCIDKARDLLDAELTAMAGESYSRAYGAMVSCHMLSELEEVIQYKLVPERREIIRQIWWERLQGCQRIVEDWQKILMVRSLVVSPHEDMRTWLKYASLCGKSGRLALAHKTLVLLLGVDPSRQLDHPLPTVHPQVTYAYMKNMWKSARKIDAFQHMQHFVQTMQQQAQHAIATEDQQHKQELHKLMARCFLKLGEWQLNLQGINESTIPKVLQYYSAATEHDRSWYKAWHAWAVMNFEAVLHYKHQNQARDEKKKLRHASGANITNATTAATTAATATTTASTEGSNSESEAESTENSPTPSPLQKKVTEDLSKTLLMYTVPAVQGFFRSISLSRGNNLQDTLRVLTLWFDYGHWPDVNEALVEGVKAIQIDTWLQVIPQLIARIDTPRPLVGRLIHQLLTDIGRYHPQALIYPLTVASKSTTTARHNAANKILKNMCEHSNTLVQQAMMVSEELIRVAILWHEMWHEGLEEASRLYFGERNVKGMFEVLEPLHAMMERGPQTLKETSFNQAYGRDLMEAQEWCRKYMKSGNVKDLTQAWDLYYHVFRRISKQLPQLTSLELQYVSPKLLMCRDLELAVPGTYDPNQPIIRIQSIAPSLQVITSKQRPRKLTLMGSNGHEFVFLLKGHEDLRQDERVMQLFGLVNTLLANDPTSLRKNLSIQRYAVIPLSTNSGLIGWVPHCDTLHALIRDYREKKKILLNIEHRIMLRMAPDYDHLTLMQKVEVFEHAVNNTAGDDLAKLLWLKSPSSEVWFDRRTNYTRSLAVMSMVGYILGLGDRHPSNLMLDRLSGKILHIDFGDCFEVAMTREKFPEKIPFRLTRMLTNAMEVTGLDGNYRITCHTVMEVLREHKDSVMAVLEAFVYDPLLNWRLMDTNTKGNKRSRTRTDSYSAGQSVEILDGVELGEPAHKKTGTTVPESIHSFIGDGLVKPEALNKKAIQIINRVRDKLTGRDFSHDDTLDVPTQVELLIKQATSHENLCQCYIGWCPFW
Sequence of ATM(h) (Q13315 whole entry): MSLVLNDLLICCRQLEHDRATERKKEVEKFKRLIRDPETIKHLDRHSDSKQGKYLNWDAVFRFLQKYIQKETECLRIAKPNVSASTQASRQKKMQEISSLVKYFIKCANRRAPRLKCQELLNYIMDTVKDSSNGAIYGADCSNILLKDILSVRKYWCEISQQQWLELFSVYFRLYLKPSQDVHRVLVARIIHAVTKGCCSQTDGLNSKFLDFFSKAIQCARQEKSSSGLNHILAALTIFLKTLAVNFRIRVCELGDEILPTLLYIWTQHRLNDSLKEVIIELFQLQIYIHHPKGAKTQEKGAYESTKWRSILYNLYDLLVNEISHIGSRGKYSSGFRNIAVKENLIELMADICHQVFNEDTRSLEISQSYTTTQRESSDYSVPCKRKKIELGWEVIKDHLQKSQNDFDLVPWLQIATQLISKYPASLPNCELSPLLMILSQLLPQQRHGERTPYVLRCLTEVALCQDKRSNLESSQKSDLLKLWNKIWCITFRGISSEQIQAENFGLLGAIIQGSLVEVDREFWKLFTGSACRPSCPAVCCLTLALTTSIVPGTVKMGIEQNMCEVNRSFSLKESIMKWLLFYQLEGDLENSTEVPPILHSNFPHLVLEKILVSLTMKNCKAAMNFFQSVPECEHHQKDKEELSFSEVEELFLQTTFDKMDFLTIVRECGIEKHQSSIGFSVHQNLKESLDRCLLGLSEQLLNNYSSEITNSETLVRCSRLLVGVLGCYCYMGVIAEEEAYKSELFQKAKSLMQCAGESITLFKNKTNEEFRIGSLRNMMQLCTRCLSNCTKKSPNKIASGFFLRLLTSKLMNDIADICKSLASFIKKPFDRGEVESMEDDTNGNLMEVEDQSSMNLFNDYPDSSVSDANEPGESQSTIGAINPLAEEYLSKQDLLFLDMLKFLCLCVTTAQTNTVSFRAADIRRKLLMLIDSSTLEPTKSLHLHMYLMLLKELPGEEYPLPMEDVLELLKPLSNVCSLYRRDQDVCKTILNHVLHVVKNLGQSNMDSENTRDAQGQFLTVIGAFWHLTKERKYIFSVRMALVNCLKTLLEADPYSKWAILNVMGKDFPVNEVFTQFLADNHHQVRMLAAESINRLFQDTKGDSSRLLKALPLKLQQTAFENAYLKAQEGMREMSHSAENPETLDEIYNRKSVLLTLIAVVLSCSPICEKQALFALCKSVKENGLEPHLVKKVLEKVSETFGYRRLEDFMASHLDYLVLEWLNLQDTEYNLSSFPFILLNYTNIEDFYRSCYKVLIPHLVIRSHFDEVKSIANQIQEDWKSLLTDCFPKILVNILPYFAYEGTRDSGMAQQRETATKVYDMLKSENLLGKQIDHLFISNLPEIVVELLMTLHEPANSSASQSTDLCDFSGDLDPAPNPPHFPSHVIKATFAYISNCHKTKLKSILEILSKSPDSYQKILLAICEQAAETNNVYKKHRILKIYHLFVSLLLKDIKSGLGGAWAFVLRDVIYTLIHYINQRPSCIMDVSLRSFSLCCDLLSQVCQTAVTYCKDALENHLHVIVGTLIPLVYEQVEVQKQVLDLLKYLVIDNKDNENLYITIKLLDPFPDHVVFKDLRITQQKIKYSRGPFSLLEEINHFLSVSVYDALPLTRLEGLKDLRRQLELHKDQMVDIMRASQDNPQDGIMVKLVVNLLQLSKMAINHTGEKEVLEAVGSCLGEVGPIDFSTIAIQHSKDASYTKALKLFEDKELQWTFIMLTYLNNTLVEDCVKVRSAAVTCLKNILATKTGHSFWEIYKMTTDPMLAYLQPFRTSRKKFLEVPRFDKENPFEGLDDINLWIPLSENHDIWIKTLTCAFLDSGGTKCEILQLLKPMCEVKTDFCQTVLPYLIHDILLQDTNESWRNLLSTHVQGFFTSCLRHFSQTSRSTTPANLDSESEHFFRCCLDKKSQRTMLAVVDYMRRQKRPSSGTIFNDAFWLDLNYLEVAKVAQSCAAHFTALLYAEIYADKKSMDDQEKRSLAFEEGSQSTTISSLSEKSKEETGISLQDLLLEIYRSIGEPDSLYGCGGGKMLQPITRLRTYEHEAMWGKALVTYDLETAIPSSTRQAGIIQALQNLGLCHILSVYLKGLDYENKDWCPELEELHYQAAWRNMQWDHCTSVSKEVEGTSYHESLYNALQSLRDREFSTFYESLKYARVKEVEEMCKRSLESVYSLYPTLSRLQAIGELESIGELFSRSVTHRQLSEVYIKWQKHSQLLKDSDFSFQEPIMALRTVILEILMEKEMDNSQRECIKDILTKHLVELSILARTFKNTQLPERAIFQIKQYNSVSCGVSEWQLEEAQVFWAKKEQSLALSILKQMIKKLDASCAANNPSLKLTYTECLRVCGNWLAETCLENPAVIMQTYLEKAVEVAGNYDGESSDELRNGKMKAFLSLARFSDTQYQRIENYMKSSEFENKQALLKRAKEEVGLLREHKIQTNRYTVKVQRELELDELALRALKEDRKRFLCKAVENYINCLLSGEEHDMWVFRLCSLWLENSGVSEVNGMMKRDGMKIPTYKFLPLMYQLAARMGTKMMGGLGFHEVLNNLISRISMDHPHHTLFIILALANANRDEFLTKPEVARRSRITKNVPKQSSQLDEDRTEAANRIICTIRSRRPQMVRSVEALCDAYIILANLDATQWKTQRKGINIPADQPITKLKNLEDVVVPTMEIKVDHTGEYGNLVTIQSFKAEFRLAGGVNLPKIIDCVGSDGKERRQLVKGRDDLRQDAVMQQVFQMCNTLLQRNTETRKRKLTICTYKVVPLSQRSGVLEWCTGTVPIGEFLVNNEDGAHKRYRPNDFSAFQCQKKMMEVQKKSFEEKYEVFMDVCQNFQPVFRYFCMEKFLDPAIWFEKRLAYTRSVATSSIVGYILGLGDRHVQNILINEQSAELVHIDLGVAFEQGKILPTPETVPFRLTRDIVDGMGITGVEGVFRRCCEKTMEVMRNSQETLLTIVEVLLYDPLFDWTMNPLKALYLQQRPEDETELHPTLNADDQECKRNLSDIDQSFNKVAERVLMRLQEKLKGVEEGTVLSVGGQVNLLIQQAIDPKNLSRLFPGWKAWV

| Molecule | IC50 (MDA-MB-468; [7]) [nM] | IC50 (MDA-MB-453; [7]) [nM] | IC50 (ATR/ATRIP(h)) [nM] | IC50 [1] [nM] | IC50 (ATM(h)) [nM] | IC50 (DNA-PK(h)) [nM] | IC50 [2] [nM] | also measured |
| --- | --- | --- | --- | --- | --- | --- | --- | --- |
| COc1ncc(-c2ccc3ncc4c(c3c2)n(CC(F)(F)F)c(=O)n4C)cc1NS(=O)(=O)N1CCNCC1 [Compound 32] | 0.24 | 0.22 | 17 | 2.8 | 0.6 | 0.3 |  |  |
| COc1ncc(-c2ccc3ncc4c(c3n2)n(C2CC2)c(=O)n4C)cc1NS(=O)(=O)N1CCNCC1 [Compound 28] | 0.24 |  | 13 | 0.6 | 0.6 | 0.3 | 2.8 |  |
| COc1ncc(-c2ccc3ncc4cnc(C5CC5)n4c3c2)cc1NS(=O)(=O)N1CCNCC1 [Compound 1] | 0.39 | 0.23 | 9 | 0.5 | 0.5 | 0.1 | 3.6 |  |
| COc1ncc(-c2ccc3ncc4c(c3c2)n([C@@H]2C[C@@H]2F)c(=O)n4C)cc1NS(=O)(=O)N1CCNCC1 [Compound 27] | 0.29 | 0.24 | 17 |  | 0.7 | 0.2 | 6.4 |  |
| daratumumab |  |  |  |  |  |  |  | EC50 (CD38 (Ramos cells)): 3.51 nM |
| COc1ncc(-c2ccc3ncc4c(c3c2)n(C(C)C)c(=O)n4C)cc1NS(=O)(=O)N1CCNCC1 [Compound 29] | 0.078 | 0.056 | 20 | 1.4 | 0.7 | 0.3 | 1.4 |  |
| COc1ncc(-c2ccc3ncc4c(c3c2)n(C2CC2)c(=O)n4C)cc1NS(=O)(=O)N1CCNCC1 [Compound 2] |  |  | 13 | 0.7 | 1 | 0.4 | 6.3 | IC50 (MDA-MB-468): 0.41 nM; IC50 (MDA-MB-453): 0.31 nM |
| COCC1(n2c(=O)n(C)c3cnc4ccc(-c5cnc(OC)c(NS(=O)(=O)N6CCNCC6)c5)cc4c32)CC1 [Compound 30] | 0.64 | 0.41 | 36 | 2.3 | 1 | 0.6 | 4.6 |  |
| ADC-32 (antibody, human IgG1, kappa, V domains shown) VH: QVQLVQSGAEVKKPGASVKVSCKASGYTFTDYAMHWVRQAPGQRLEWMGLISTYSGDTKYNQNFQGRVTMTVDKSASTAYMELSSLRSEDTAVYYCARGDYSGSRYWFAYWGQGTLVTVSS VL: DIQMTQSPSSLSASVGDRVTITCQASENIYGALNWYQRKPGKSPKLLIYGASNLATGMPSRFSGSGSGTDYTFTISSLQPEDIATYYCQQVLSSPYTFGGGTKLEIKR |  |  |  |  |  |  |  | IC50, nM, cell proliferation, H2122 cell line (CEACAM 5/6^+) (CEACAM5/6 [3]): 0.29 nM; EC50 (CEACAM5/6 [4]): 4.26 nM |
| mAb1 (antibody, human IgG1, kappa, V domains shown) VH: QVQLVQSGAEVKKPGASVKVSCKASGYTFTDYAMHWVRQAPGQRLEWMGLISTYSGDTKYNQNFQGRVTMTVDKSASTAYMELSSLRSEDTAVYYCARGDYSGSRYWFAYWGQGTLVTVSS VL: DIQMTQSPSSLSASVGDRVTITCQASENIYGALNWYQRKPGKSPKLLIYGASNLATGMPSRFSGSGSGTDYTFTISSLQPEDIATYYCQQVLSSPYTFGGGTKLEIKR |  |  |  |  |  |  |  | EC50 (CEACAM5/6 [4]): 7.94 nM |
| ADC-24 (antibody, human IgG1, kappa, V domains shown) VH: QVQLQQPGAELVKPGASVKMSCKASGYTFTSYNMHWVKQTPGRGLEWIGAIYPGNGDTSYNQKFKGKATLTADKSSSTAYMQLSSLTSEDSAVYYCARSTYYGGDWYFNVWGAGTTVTVSA VL: QIVLSQSPAILSASPGEKVTMTCRASSSVSYIHWFQQKPGSSPKPWIYATSNLASGVPVRFSGSGSGTSYSLTISRVEAEDAATYYCQQWTSNPPTFGGGTKLEIKR |  |  |  |  |  |  |  | EC50 (CD20 [5]): 0.457 nM; IC50, nM, cell proliferation, Ramos cell line (CD20^+) (CD20 [6]): 27.7 nM |
| Rituximab (antibody, human IgG1, kappa, V domains shown) VH: QVQLQQPGAELVKPGASVKMSCKASGYTFTSYNMHWVKQTPGRGLEWIGAIYPGNGDTSYNQKFKGKATLTADKSSSTAYMQLSSLTSEDSAVYYCARSTYYGGDWYFNVWGAGTTVTVSA VL: QIVLSQSPAILSASPGEKVTMTCRASSSVSYIHWFQQKPGSSPKPWIYATSNLASGVPVRFSGSGSGTSYSLTISRVEAEDAATYYCQQWTSNPPTFGGGTKLEIKR |  |  |  |  |  |  |  | EC50 (CD20 [5]): 0.691 nM |
